Here are results for 16 compounds from ChEMBL document CHEMBL1129997 (J Med Chem, 1997).

One assay concerns T78-1. The assay is described as follows: Cytotoxicity in T78-1 (NR-negative) cell lines. The class given is functional, cell-based. The note with it: Cricetulus griseus.
Another assay concerns T78-1/T79-A3. The assay is described as follows: TE50 is termed as Bystander effect evaluated in T78-1 and T79-A3 cell lines. The class given is functional, Cricetulus griseus. More on the design: unit not given beside the values.
The target of assay [1] is T1, Modulator of drug activity A (Escherichia coli O157:H7) (UniProt Q8X6S1).
T1 sequence (whole entry): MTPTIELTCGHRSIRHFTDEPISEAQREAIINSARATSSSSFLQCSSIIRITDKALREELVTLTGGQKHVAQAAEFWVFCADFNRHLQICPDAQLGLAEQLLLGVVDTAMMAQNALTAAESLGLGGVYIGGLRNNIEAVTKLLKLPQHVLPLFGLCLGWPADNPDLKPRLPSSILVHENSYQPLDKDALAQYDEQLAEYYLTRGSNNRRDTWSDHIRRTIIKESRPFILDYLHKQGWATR
Briefly: IC50 ratio for NR-positive and NR-negative cell lines. The class given is functional.

With `NC(=O)c1cc(N(CCCl)CCCl)c([N+](=O)[O-])cc1[N+](=O)[O-]`, the IC50 in the assay with T78-1 was determined as 895 µM. In the assay on T78-1/T79-A3, this compound displayed a TE50 of 3.7. The Ratio in assay [1] turned out to be 63.
In the case of `NC(=O)c1cc(N2CC2)c([N+](=O)[O-])cc1[N+](=O)[O-]` [TRETAZICAR], the IC50 in the assay with T78-1 was 158 µM. In the assay on T78-1/T79-A3, this compound gave a TE50 of 1.
The like results for `O=C(NCC(O)CO)c1cc(N(CCI)CCI)c([N+](=O)[O-])cc1[N+](=O)[O-]` (stereo not drawn) were, in that order, 793 µM and 0.45.
The like results for `NC(=O)c1cc([N+](=O)[O-])cc([N+](=O)[O-])c1N(CCBr)CCBr` were, in that order, 17.5 µM and 0.22.
Take `NC(=O)c1c([N+](=O)[O-])ccc(N(CCCl)CCCl)c1[N+](=O)[O-]`: the IC50 in the assay with T78-1 was more than 1000 µM.
`NC(=O)c1cc([N+](=O)[O-])cc([N+](=O)[O-])c1N(CCCl)CCCl` came in with an IC50 in the assay on T78-1 of more than 1000 µM. For the same compound, in assay [1], the Ratio is more than 133.
As for `CS(=O)(=O)CCN(CCCl)c1cc(C(N)=O)c([N+](=O)[O-])cc1[N+](=O)[O-]`, the IC50 in the assay with T78-1 was more than 1000 µM.
With `NC(=O)c1cc([N+](=O)[O-])cc([N+](=O)[O-])c1N(CCI)CCI`, in the assay on T78-1, it took 58 µM to reach half-maximal inhibition (IC50). In the assay with T78-1/T79-A3, the TE50 is recorded as 0.4.
In the assay with T78-1, `NC(=O)c1cc(N(CCI)CCI)c([N+](=O)[O-])cc1[N+](=O)[O-]` came in with an IC50 of 71 µM. Also, the TE50 in the assay with T78-1/T79-A3 came to 0.3. Moreover, the Ratio in assay [1] turned out to be 494.
In the case of `O=C(NCC(O)CO)c1cc(N(CCCl)CCCl)c([N+](=O)[O-])cc1[N+](=O)[O-]` (stereo not drawn), the IC50 in the assay on T78-1 is more than 5000 µM. Also, the Ratio in assay [1] was more than 55.
Turning to `CS(=O)(=O)c1cc([N+](=O)[O-])c(C(N)=O)cc1N(CCCl)CCCl`, in the assay with T78-1, the IC50 is more than 1000 µM. For the same compound, the Ratio in assay [1] is more than 17.
On to `O=C(NCC(O)CO)c1cc([N+](=O)[O-])cc([N+](=O)[O-])c1N(CCI)CCI` (stereo not drawn), for which half-maximal inhibition in the assay with T78-1 (IC50) required 86 µM. Besides, the TE50 in the assay on T78-1/T79-A3 was 7. Moreover, in assay [1], the Ratio is 21.5.
`CN(C)CCNC(=O)c1c([N+](=O)[O-])ccc(N(CCCl)CCCl)c1[N+](=O)[O-]` gave an IC50 in the assay on T78-1 of 722 µM. Moreover, in assay [1], the Ratio was determined as 0.8.
`NC(=O)c1cc(N(CCBr)CCBr)c([N+](=O)[O-])cc1[N+](=O)[O-]`: the IC50 with T78-1 turned out to be 633 µM. The TE50 with T78-1/T79-A3 is recorded as 0.1. Moreover, in assay [1], the Ratio is 2530.
Turning to `O=C(NCC(O)CO)c1cc([N+](=O)[O-])cc([N+](=O)[O-])c1N(CCCl)CCCl` (stereo not drawn), the IC50 with T78-1 is 919 µM. This compound also gave a TE50 in the assay with T78-1/T79-A3 of 12.
In the assay on T78-1, `CS(=O)(=O)CCN(CCS(C)(=O)=O)c1cc(C(N)=O)c([N+](=O)[O-])cc1[N+](=O)[O-]` yielded an IC50 of more than 1000 µM.
